The values below come from patent publication KR20100108793A, “애기뿔소똥구리로부터 분리된 항진균 활성을 가지는 코프리신 펩타이드 및 그의 용도” (대한민국(농촌진흥청장), priority 2009, dated 2010).

What all share (assay type): cell-based
For one data set, the system named is Trichophyton rubrum. As to the kind of experiment: Antifungal MIC by MTT assay. The settings on record: 28℃, 24 h, MTT readout at 570 nm.
Data set [1] has as its system Candida albicans (ATCC 90028). As to the kind of experiment: Antifungal MIC by MTT assay. The settings on record: strain ATCC 90028; 28℃, 24 h, MTT readout at 570 nm. (Formazan colour is commonly taken as a measure of viable cells.)
Another data set concerns Aspergillus fumigatus. In words: Antifungal MIC by MTT assay. Particulars: 28℃, 24 h, MTT readout at 570 nm.
In data set [2] the test system is Candida albicans (TIMM 1768). As to the kind of experiment: Antifungal MIC by MTT assay. Particulars: strain TIMM 1768; 28℃, 24 h, MTT readout at 570 nm.
A further data set deals with Aspergillus parasticus. In words: Antifungal MIC by MTT assay. Particulars: 28℃, 24 h, MTT readout at 570 nm.
The test system of a further data set is Malassezia furfur. In words: Antifungal MIC by MTT assay. Particulars: 28℃, 24 h, MTT readout at 570 nm.
The subject of the next data set is Trichosporon beigelii. In words: Antifungal MIC by MTT assay. Particulars: 28℃, 24 h, MTT readout at 570 nm.
The test system of a further data set is Candida parapsilosis. As to the kind of experiment: Antifungal MIC by MTT assay. Particulars: 28℃, 24 h, MTT readout at 570 nm.
Data set [3] has as its system Candida albicans. In words: Mechanism of antifungal activity (time-kill, CFU count; cidal or static). Particulars: plated over time on YPD agar, 28℃, 24 h, CFU count (Fig. 2).
In a further data set the test system is Aspergillus flavus. In words: Antifungal MIC by MTT assay. Particulars: 28℃, 24 h, MTT readout at 570 nm.
In data set [4] the test system is Candida albicans. In words: Activity on dimorphism (FBS-induced hyphae) of pathogenic fungus, microscopy. Particulars: hyphae induced with 20% FBS; 37℃, 24 h; microscopy (Fig. 1).
A further data set has as its system Human erythrocytes. In words: Cytotoxicity to human erythrocytes (hemolysis). The settings on record: for % human erythrocyte hemolysis: 37℃, 90 min, 0.1% Triton X-100 = 100 %; for Cytotoxicity to human erythrocytes (in words): summary of Table 3.

In brackets after ≈: the same amount, converted by molar mass. Where no end group is shown, it is not given here.

Regarding “VTCDVLSFEAKGIAVNHSACALHCIALRKKGGSCQNGVCVCRN (cysteines drawn unpaired) [코프리신]”, the MIC (in general, the lowest concentration found to suppress growth) in the data set on Trichophyton rubrum was 20 µM; in data set [1] it was 10 µM; against Aspergillus fumigatus, 5 µM; in data set [2] it was 5 to 10 µM; with Aspergillus parasticus, 10 µM; in the data set with Malassezia furfur it was 5 µM. The MIC with Trichosporon beigelii, with Candida parapsilosis and in the data set with Aspergillus flavus was 10 µM in each case. The “Mode of antifungal action, cidal or static (in words)” value in the data set on Candida albicans [3] is “효과적으로 사멸(cidal)”. For the same compound, in the data set on Candida albicans [4], the “Effect on hyphae of Candida albicans (in words)” value is “hyphae를 효과적으로 aggregation시킴”. In addition, the “% human erythrocyte hemolysis” value with Human erythrocytes (peptide 3.13 μM), in the data set on Human erythrocytes (peptide 6.25 μM), in the data set with Human erythrocytes (peptide 12.5 μM), in the data set on Human erythrocytes (peptide 25 μM), with Human erythrocytes (peptide 50 μM) and with Human erythrocytes (peptide 100 μM) was 0% throughout. Moreover, the “Cytotoxicity to human erythrocytes (in words)” value in the data set with Human erythrocytes is “고농도에서도 전혀 세포 독성을 나타내지 않음”.

Consider `CC[C@H](C)[C@H](NC(=O)CN)C(=O)NCC(=O)N[C@@H](C)C(=O)N[C@H](C(=O)N[C@@H](CC(C)C)C(=O)N[C@@H](CCCCN)C(=O)N[C@H](C(=O)N[C@@H](CC(C)C)C(=O)N[C@H](C(=O)N[C@H](C(=O)NCC(=O)N[C@@H](CC(C)C)C(=O)N1CCC[C@H]1C(=O)N[C@@H](C)C(=O)N[C@@H](CC(C)C)C(=O)N[C@H](C(=O)N[C@@H](CO)C(=O)N[C@@H](Cc1c[nH]c2ccccc12)C(=O)N[C@H](C(=O)N[C@@H](CCCCN)C(=O)N[C@@H](CCCNC(=N)N)C(=O)N[C@@H](CCCCN)C(=O)N[C@@H](CCCNC(=N)N)C(=O)N[C@@H](CCC(N)=O)C(=O)N[C@@H](CCC(N)=O)C(N)=O)[C@@H](C)CC)[C@@H](C)CC)[C@@H](C)O)[C@@H](C)O)C(C)C)C(C)C` [멜리틴, reference compound], for which the MIC against Trichophyton rubrum amounted to 5 µM (≈ 14.2 µg/mL); in data set [1], 5 µM (≈ 14.2 µg/mL); against Aspergillus fumigatus it was 2.5 µM (≈ 7.12 µg/mL); in data set [2] it was 2.5 µM (≈ 7.12 µg/mL); in the data set on Aspergillus parasticus, 5 µM (≈ 14.2 µg/mL); with Malassezia furfur it was 1.25 µM (≈ 3.56 µg/mL). Moreover, the MIC with Trichosporon beigelii was determined as 2.5 µM (≈ 7.12 µg/mL); with Candida parapsilosis it was 5 µM (≈ 14.2 µg/mL); in the data set with Aspergillus flavus, 2.5 µM (≈ 7.12 µg/mL). The “Mode of antifungal action, cidal or static (in words)” value with Candida albicans [3] is “효과적으로 사멸(cidal)”. The “% human erythrocyte hemolysis” value in the data set on Human erythrocytes (peptide 3.13 μM) was determined as 98%; with Human erythrocytes (peptide 6.25 μM) it was 98%; with Human erythrocytes (peptide 12.5 μM), 100%; in the data set on Human erythrocytes (peptide 25 μM), 100%; with Human erythrocytes (peptide 50 μM), 100%; with Human erythrocytes (peptide 100 μM) it was 100%. In addition, the “Cytotoxicity to human erythrocytes (in words)” value in the data set on Human erythrocytes is given as “낮은 농도에서도 세포 독성이 매우 높게 나타냄”.
